Experimental data as given in ChEMBL document CHEMBL3112423, “Selective EP4 Antagonist May Be Useful in Treating Arthritis and Arthritic Pain” (ACS Med Chem Lett, 2014).

Assays:
[1] = target: T1, Prostaglandin E2 receptor EP3 subtype (Homo sapiens, UniProt P43115); experiment: Displacement of [3H]-PGE2 from human EP3 receptor expressed in HEK293 cell membranes after 90 mins by topcount scintillation counting analysis
T1 sequence (P43115 whole entry): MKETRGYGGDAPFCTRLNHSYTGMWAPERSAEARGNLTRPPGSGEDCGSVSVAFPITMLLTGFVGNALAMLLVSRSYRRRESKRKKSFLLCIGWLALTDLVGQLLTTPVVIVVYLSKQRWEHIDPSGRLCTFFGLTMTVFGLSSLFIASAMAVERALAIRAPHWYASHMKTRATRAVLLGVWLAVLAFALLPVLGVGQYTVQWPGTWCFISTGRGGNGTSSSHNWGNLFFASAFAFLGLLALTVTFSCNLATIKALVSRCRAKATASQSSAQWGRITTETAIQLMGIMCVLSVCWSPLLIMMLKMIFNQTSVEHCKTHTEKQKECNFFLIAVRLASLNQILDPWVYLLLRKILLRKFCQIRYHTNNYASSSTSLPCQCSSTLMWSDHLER

[2] = target: T2, Prostaglandin E2 receptor EP1 subtype (Homo sapiens, UniProt P34995); experiment: Displacement of [3H]-PGE2 from human EP1 receptor expressed in recombinant HEK293 cell membranes after 90 mins by topcount scintillation counting analysis
T2 sequence (P34995 whole entry): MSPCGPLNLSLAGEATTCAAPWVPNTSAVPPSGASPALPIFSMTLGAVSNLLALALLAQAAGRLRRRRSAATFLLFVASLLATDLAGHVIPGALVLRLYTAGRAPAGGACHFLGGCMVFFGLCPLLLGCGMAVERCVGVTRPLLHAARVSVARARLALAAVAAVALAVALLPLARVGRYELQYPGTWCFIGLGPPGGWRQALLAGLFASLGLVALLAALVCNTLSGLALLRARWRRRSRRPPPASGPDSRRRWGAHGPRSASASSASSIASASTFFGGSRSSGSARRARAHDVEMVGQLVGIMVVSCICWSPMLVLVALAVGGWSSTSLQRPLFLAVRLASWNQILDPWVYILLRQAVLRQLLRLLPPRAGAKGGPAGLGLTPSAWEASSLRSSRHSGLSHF

C[C@H](NC(=O)[C@H]1CCCCN1CCOc1ccccc1)c1ccc(C(=O)O)cc1
Ki [1]: > 14 µM | Ki [2]: > 17.5 µM
